Laboratory results reported in US7022315B2, “Administration of a thiol-based chemoprotectant compound” (Oregon Health & Science University, priority 2000, dated 2006).
Values after ≈ are worked out from the molar mass of the structure shown. Read-outs that look alike come from different tables or passages of the source.

Experiments:
GM294 human fibroblasts = assay: Cytoenhancement and chemoprotection in fibroblasts, WST assay; type: cell-based
Protocol: Cytotoxicity was assessed in GM294 human fibroblasts, 1×10^4 cells per well in 96 well plates, using the WST colorometric assay. […] Data are expressed as the percentage of live cells compared to control samples (without chemotherapy) and each point represents the mean±s.d. of 4 wells.

[1] = test system: Caspase-2 activity in B.5 LX-1 cells; assay: Caspase-2 enzymatic activity (apoptosis); type: cell-based; details: for increase in caspase activity: variable between experiments
Protocol: (§1) FIGS. 7A and 7B show the effect of cytoenhancement and chemoprotection on apoptosis. […] Apoptosis was assessed in cultured LX-1 SCLC cells pretreated for 18 hours with or without 100 μM BSO. The experimental conditions were no addition (open bars), melphalan (10 μg/ml, striped bars) or melphalan (10 μg/ml) plus N-acetylcysteine (1000 μg/ml) (cross hatched bars) for 20 h prior to harvest. Caspase-2 activity is expressed as percentage activity in untreated control samples (mean±standard deviation, n=3). TUNEL staining is expressed as the percentage of cells showing positive staining.
(§2) Apoptosis was evaluated by measuring Caspase-2 enzymatic activity and by in situ TUNEL staining. […] The increase in caspase activity was variable between experiments and ranged from 50–100% at 7–8 h to 250–600% at 20–24 h after treatment with melphalan. […] In the experiment shown in FIG. 7B, TUNEL staining after melphalan treatment was positive in 29 of 3643 cells, compared to 7 of 4395 cells in the untreated control, and BSO treatment prior to melphalan increased the positive staining to 800 of 1699 cells. […] In both assays, activity was maximal with low doses of melphalan, or with a 1 hour pulse treatment with the doses used in the cytotoxicity assays.
Samples of the cells used in the caspase and TUNEL assays were also evaluated for membrane permeability by trypan blue exclusion.

B.5 LX-1 cells [2] = assay: cells; details: for EC50: Homo sapiens
Protocol: FIGS. 4A and 4B show cytoenhancement and chemoprotection. […] Cytotoxicity was assessed in cultured LX-1 SCLC cells, 1×10^4 cells per well in 96 well plates, using the WST colorometric assay. BSO cytoenhancement consisted of preincubation at 100 μM BSO for 18 hours. The chemoprotective agent was added immediately after chemotherapy. The experimental conditions were dose/responses for chemotherapy (carboplatin or etoposide phosphate) alone (m), BSO cytoenhancement ( ? ), N-acetylcysteine rescue, (1000 μg/ml N-acetylcysteine, n), or BSO cytoenhancement and N-acetylcysteine rescue (u). Data are expressed as the percentage of live cells compared to untreated control samples without chemotherapy and each point represents the mean±standard deviation of 4 wells.
The effects of BSO cytoenhancement and thiol chemoprotection on the dose/response relationships for cytotoxicity of the alkylating chemotherapeutics were evaluated in the B.5 LX-1 cells. BSO cytoenhancement consisted of preincubation with 100 μM BSO for about 18–24 hours prior to addition of chemotherapy, and rescue consisted of 1000–2000 μg/ml of thiol chemoprotectant added immediately after chemotherapy.
Cytoenhancement and chemoprotection against non-alkylating chemotherapeutic agents was also evaluated.
Half-maximal cytotoxic concentrations (EC50) are expressed as μg/ml. Each EC50 measurement comprised 6 concentrations with 4 wells per concentration, and each dose response was performed in triplicate for each chemotherapeutic agent. Data are reported as the mean±pooled standard deviation for three independent experiments. P values are shown for the reduction in EC50 by BSO treatment (*=P<0.05, **=P<0.01, ***=P<0.001).

LX-1 SCLC cells [3] = assay: cells; details: for EC50 / Chemoprotective agent EC50: average ± pooled sd of two experiments
Protocol: Cytotoxicity was assessed in cultured LX-1 SCLC cells, 1×10^4 cells per well in 96 well plates, using the WST colorometric assay. […] Chemoprotectant was added at the indicated concentration of N-acetylcysteine shown in FIG. 3A or D-methionine shown in FIG. 3B either alone (n) or immediately following chemotherapy. Data are expressed as the percentage of live cells compared to untreated control samples (without chemotherapy) and each point represents the mean±standard deviation of 4 wells.
The dose/response for rescue from chemotherapy cytotoxicity was evaluated for four different small molecular weight sulfur containing chemoprotectants.
Chemotherapy agents were fixed at the 90% lethal dose for each agent. Each EC50 measurement comprised 6 concentrations with 4 wells per concentration, and each dose response was performed twice for each protectant. EC50 concentrations, in μg/ml are reported as the average±pooled standard deviation for two independent experiments.

LX-1 SCLC cells [4] = test system: LX-1 SCLC cells
Protocol: Chemotherapy cytotoxicity was assessed in cultured LX-1 SCLC cells (1×10^4 cells/well in 96 well plates) using the WST colorometric assay. […] Cells then received either no protectant (open bars), or sodium thiosulfate, 2000 μg/ml, added immediately (striped bars), 2 hours (black bars) or 4 hours (cross hatched bars) after chemotherapy. Data are expressed as the percentage of live cells compared to control samples (without chemotherapy) and each point represents the mean±standard deviation of 4 wells.
The thiol chemoprotectants were added either concurrently with chemotherapy or up to 8 hours after chemotherapy.

B.5 LX-1 cells [5] = assay: In situ TUNEL staining for DNA fragmentation; type: cell-based
Protocol: as §1, §2

rats = assay: Protection against chemotherapy-induced myelosuppression, nadir blood counts; type: in vivo, rat; details: STS alone; data not shown
Protocol: FIGS. 10A–10D show the results of tests on chemoprotection for chemotherapy-induced myelosuppression. Rats received tri-drug chemotherapy (Carboplatin 200 mg/m2, etoposide phosphate 100 mg/m2, melphalan 10 mg/m2), with (triangles, squares) or without (circles) chemoprotection. Blood counts were determined prior to chemotherapy, at the blood nadir (6 days), and in the recovery phase (9 days after treatment). Chemoprotection was with NAC (1200 mg/kg) administered via aortic infusion 30 min prior to chemotherapy (triangles) or NAC prior to chemotherapy and STS (8 g/m2) immediately after chemotherapy (squares). In FIG. 10B and FIG. 10D animals received BSO (10 mg/kg i.p.×3 d) prior to treatment with chemotherapy. […] Significant difference from the no protectant groups were determined by Wilcoxon/Kruskal-Walliis rank sums tests (*p<0.05, **p<0.01).
Chemoprotection against chemotherapy-induced bone marrow toxicity was determined in BSO treated and untreated animals given i.a. carboplatin, etoposide phosphate, and melphalan. NAC with or without STS was administered either about 30 minutes prior to chemotherapy or immediately after chemotherapy, and was administered either i.v. or by aortic infusion.

[6] = cited from earlier work
cultured tumor cells = assay: Paclitaxel cytotoxicity with BSO and NAC (WST); type: cell-based
[7] = read-out: Chemoprotective agent EC50, protection against carboplatin 200 μg/ml (about 90% lethal dose)
[8] = read-out: Chemoprotective agent EC50, protection against cisplatin 15 μg/ml (about 90% lethal dose)

## CCCCS(=N)(=O)CCC(N)C(=O)O (stereo not drawn) [BSO, buthionine sulfoximine]
GM294 human fibroblasts; 100 μM for 18 hours pretreatment
  effect on toxicity of melphalan, cisplatin and carboplatin: enhanced the toxicity of all three alkylators
[1]
  effect on cisplatin- or carboplatin-induced caspase activity: No significant amplification of caspase activity
[1]; BSO pretreatment, low melphalan concentrations
  effect on melphalan-induced Caspase-2 activity: amplified

## N.N.O=C([O-])C1(C(=O)[O-])CCC1.[Pt+2] [Carboplatin, carboplatin]
B.5 LX-1 cells [2]; 100 μM BSO preincubation
  reduction of EC50 for cytotoxicity by BSO: 48%
B.5 LX-1 cells [2]; Without BSO, mean ± pooled sd of three experiments
  Chemotherapy EC50 (cytotoxicity): 103 ± 21 µg/mL

## CSCC[C@@H](N)C(=O)O [D-methionine]
LX-1 SCLC cells [3]; [7]
  EC50: 379 ± 123 µg/mL (≈ 2540 µM)
LX-1 SCLC cells [3]; [8]
  EC50: 140 ± 41 µg/mL (≈ 938 µM)
LX-1 SCLC cells [4]; delayed for 2 hours after cisplatin
  reduction of protection against cisplatin compared to simultaneous addition: 41.2±10.2%
LX-1 SCLC cells [4]; delayed to 4 hours after cisplatin
  reduction of protection against cisplatin compared to simultaneous addition: 66.1±4.5%
LX-1 SCLC cells [4]; pretreatment for 30 min prior to cisplatin
  protection against cisplatin compared to simultaneous addition: did not increase the amount of protection

## CCOC(=O)CNC(=O)[C@H](CS)NC(=O)CC[C@H](N)C(=O)O [Glutathione ethyl ester]
LX-1 SCLC cells [3]; on a μg/ml basis
  relative effectiveness among the thiol agents tested: least effective
LX-1 SCLC cells [3]; protection against carboplatin 200 μg/ml (about 90% lethal dose)
  Chemoprotective agent EC50: 995 ± 48 µg/mL
LX-1 SCLC cells [3]; protection against cisplatin 15 μg/ml (about 90% lethal dose)
  Chemoprotective agent EC50: 530 ± 30 µg/mL
LX-1 SCLC cells [3]; protection against melphalan 20 μg/ml (about 90% lethal dose)
  Chemoprotective agent EC50: 303 ± 124 µg/mL

## N[C@@H](Cc1ccc(N(CCCl)CCCl)cc1)C(=O)O [Melphalan, melphalan]
B.5 LX-1 cells [2]
  reduction of EC50 for cytotoxicity by BSO: 53%
B.5 LX-1 cells [2]; LX-1, read-out: Chemotherapy EC50 (cytotoxicity), + BSO (100 μM preincubation 18–24 hours), mean ± pooled sd of three experiments
  EC50: 6.4 ± 0.6 µg/mL
B.5 LX-1 cells [2]; LX-1, read-out: Chemotherapy EC50 (cytotoxicity), Without BSO, mean ± pooled sd of three experiments
  EC50: 13.8 ± 1.8 µg/mL (≈ 45.2 µM)
[1]; 7–8 h after treatment
  increase in caspase activity: 50–100%
[1]; 20–24 h after treatment
  increase in caspase activity: 250–600%
B.5 LX-1 cells [5]; BSO treatment prior to melphalan
  TUNEL staining positive cells: 800 of 1699
B.5 LX-1 cells [5]; melphalan treatment without BSO
  TUNEL staining positive cells: 29 of 3643

## O=S(O)(O)=S [STS, sodium thiosulfate]
LX-1 SCLC cells [3]; [7]
  EC50: 442 ± 203 µg/mL
LX-1 SCLC cells [3]; [8]
  EC50: 86 ± 76 µg/mL
LX-1 SCLC cells [3]; read-out: Chemoprotective agent EC50, protection against melphalan 20 μg/ml (about 90% lethal dose)
  EC50: 110 ± 78 µg/mL
LX-1 SCLC cells [4]; melphalan 20 μg/ml, protectant delayed (2 hours for STS)
  protection against melphalan cytotoxicity with delayed addition: chemoprotection was reduced
LX-1 SCLC cells [4]; protectant delayed (up to 4 hours for STS)
  protection against platinum (carboplatin, cisplatin) cytotoxicity with delayed addition: still protective
rats
  bone marrow protection: did not give consistent bone marrow protection
[6]; after a bolus injection
  plasma half life: about 17 minutes
[6]; i.v. administration
  brain levels: < 5 % of blood

## COc1cccc2c1C(=O)c1c(O)c3c(c(O)c1C2=O)C[C@@](O)(C(=O)CO)C[C@@H]3O[C@H]1C[C@H](N)[C@H](O)[C@H](C)O1 [doxorubicin]
B.5 LX-1 cells [2]
  BSO enhancement or N-acetylcysteine protection of the agent's cytotoxicity: no enhancement or protection

## COc1cc([C@@H]2c3cc4c(cc3[C@@H](O[C@@H]3O[C@@H]5CO[C@@H](C)O[C@H]5[C@H](O)[C@H]3O)[C@H]3COC(=O)[C@H]23)OCO4)cc(OC)c1OP(=O)(O)O [etoposide phosphate]
B.5 LX-1 cells [2]
  BSO enhancement or N-acetylcysteine protection of the agent's cytotoxicity: BSO did not increase the cytotoxicity of etoposide phosphate, nor did N-acetylcysteine decrease the cytotoxicity
GM294 human fibroblasts
  effect of BSO and N-acetylcysteine on the agent's cytotoxicity: neither BSO cytoenhancement nor N-acetylcysteine chemoprotection affected the cytotoxicity

## CN(Cc1cnc2nc(N)nc(N)c2n1)c1ccc(C(=O)N[C@@H](CCC(=O)O)C(=O)O)cc1 [methotrexate]
B.5 LX-1 cells [2]
  BSO enhancement or N-acetylcysteine protection of the agent's cytotoxicity: no enhancement or protection

## CC(=O)O[C@H]1C(=O)[C@@]2(C)[C@H]([C@H](OC(=O)c3ccccc3)[C@]3(O)C[C@H](OC(=O)[C@H](O)[C@@H](NC(=O)c4ccccc4)c4ccccc4)C(C)=C1C3(C)C)[C@]1(OC(C)=O)CO[C@@H]1C[C@@H]2O [paclitaxel]
Cultured tumor cells; cells pretreated with BSO
  dose completely cytotoxic in vitro: ≥ 5 µM
Cultured tumor cells; paclitaxel dose 5 (unit not given)
  live cells (WST fluorescence): 1.274 +/− .071
Cultured tumor cells; paclitaxel dose 20 (unit not given)
  live cells (WST fluorescence): 0.771 +/− .056
Cultured tumor cells; without BSO
  concentration at which it begins to be cytotoxic: 20 µM
  concentration at which it is completely toxic: 30 µM
B.5 LX-1 cells [2]; not altered by BSO
  growth inhibitory dose: approximately 10 nM
